Assay results: publication PMC9299109 (Iubmb Life, 2021)

Key:
[1] = molecular target: T1, BoFADS (FAD synthase from Brucella ovis) (Brucella ovis, UniProt A0A0H3AW96); assay: biochemical
[2] = molecular target: T1, BoFADS (FAD synthase from Brucella ovis)

T1 sequence (A0A0H3AW96 1-329): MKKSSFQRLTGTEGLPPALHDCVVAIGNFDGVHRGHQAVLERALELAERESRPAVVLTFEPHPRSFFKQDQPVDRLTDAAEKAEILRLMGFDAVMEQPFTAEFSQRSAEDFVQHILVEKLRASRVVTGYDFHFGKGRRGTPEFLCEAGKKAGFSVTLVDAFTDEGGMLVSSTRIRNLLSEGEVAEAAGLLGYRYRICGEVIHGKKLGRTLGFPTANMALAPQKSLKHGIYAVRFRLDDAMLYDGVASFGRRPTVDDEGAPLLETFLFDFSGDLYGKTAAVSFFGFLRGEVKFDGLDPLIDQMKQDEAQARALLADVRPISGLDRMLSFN

Row | SMILES | Kd [1] [nM] | visible difference spectroscopy, FMN titration with ADP [2]
1 | Cc1cc2nc3c(=O)[nH]c(=O)nc-3n(C[C@H](O)[C@H](O)[C@H](O)COP(=O)(O)O)c2cc1C [FMN, flavin mononucleotide] | 290 ± 100 | –
2 | Nc1ncnc2c1ncn2[C@@H]1O[C@H](COP(=O)(O)OP(=O)(O)O)[C@@H](O)[C@H]1O [ADP] | – | titrated with oxidized FMN in the presence of ADP but not in its absence
3 | Cc1cc2nc3c(=O)[nH]c(=O)nc-3n(C[C@H](O)[C@H](O)[C@H](O)CO)c2cc1C [RF, riboflavin] | 410 ± 60 | –
